Data on two molecules can be found in publication PMC8036603, “Small Molecule Inhibitors of White Spot Syndrome Virus: Promise in Shrimp Seedling Culture” (International Journal of Molecular Sciences, 2021).

The subject of data set [1] is Shrimp (L. vannamei) larvae. Kind of data set: Acute toxicity assay in shrimp larvae. The conditions noted are these: after 72 h of exposure. Type of data set: in vivo, Litopenaeus vannamei. As for the experimental part: Shrimp (L. vannamei) larvae (total length: 0.5 ± 0.04 cm, body weight: 4.2 ± 0.4 mg, mean ± SD) were provided by Zhejiang Mariculture Research Institute Qingjiang Station (Wenzhou, China). The larvae were maintained in a culture pond at 28 °C, fed four times a day with commercial feed pellets, and collected randomly for PCR testing to verify the WSSV-free status prior to the trial.
Acute toxicity of the coumarin derivatives was investigated by exposing larvae to a range of compound concentrations, from 0.1 mg/L to 100 mg/L of coumarin derivatives, where the dose setting was based on the data from preliminary tests in our laboratory. A DMSO-control (2%, v/v, the highest percentage of DMSO in treatments) served as the control. During the experiment, every 20 larvae were moved into six-well plates filled with 6 mL/per well freshly prepared test solutions for a 72-h incubation at 28 °C with a natural photoperiod. […] To avoid deterioration of water quality, dead shrimps were immediately removed at the point of observation. Three replicate experiments were performed.
Compound response curves were represented by a logistic sigmoidal function with a maximal effect level (Amax) and Hill coefficient representing the sigmoidal transition (Origin 8.1; http://www.originlab.com, accessed on 25 March 2021). Statistical analyses were performed using SPSS (version 18.0) statistical software (SPSS Inc., Chicago, IL, USA). The LC50 and EC50 values with 95% CIs were calculated using probit analysis. Virus titers were log10-transformed prior to statistical analyses. Unpaired Student’s t-tests were used to compare coumarin-treated samples and negative-control DMSO samples for determining significance and data are presented as mean values ± SD.

The subject of data set [2] is white spot syndrome virus (WSSV). Kind of data set: Anti-WSSV activity in shrimp larvae, co-incubation, copy number of viral genome by RT-qPCR. The conditions noted are these: for copy number of the viral genome in sick or dead shrimp homogenates: 24, 48 and 72 hpi, up to 10 mg/L; for inhibitory efficiency on WSSV replication: six-point dose-response, viral genome copy number in larvae. It counts as in vivo, Litopenaeus vannamei. Background: Quantitative PCR measures a nucleic acid by following its amplification.

Data set [3] is described as follows: Solubility / precipitation in aquacultural water. It counts as physicochemical. The following applies: for lowest precipitation concentration / lowest precipitation concentration (bracketed value in LC50 48 h column) / lowest precipitation concentration (bracketed value in LC50 72 h column): test range 0.4~100 mg/L, aquacultural water, LC50 NONE; for solubility in aquacultural water: tested concentration 16 mg/L, 28 °C. As for the experimental part: Prior to evaluation of the anti-WSSV activity of coumarins, the safety doses for larvae needed to be determined. […] In contrast, the electron-withdrawing group was more toxic than the electron-donating group, with the LC50 of A5‒A8 being <5 mg/L at 72 h. […] Based on preliminary analysis of the structure-activity relationship (SAR) of similar spatial structures with different substituents of electron-donating and electron-withdrawing groups to coumarins A1, B1, and C1, we considered that […] of compounds; this provides a basis for further research.
All conventional reagents and solvents are purchased directly from commercial companies and no further purification is required. Organic solvents were purchased from Sinopharm chemical reagent Co., Ltd. and purified by distillation and moisture was excluded from the glass apparatus using CaCl2 drying tubes. Throughout this study, silica gel H (200–300 mesh; Qingdao Marine Chemical Factory, Qingdao, China) was used for the column chromatography. For thin layer chromatographic (TLC) plates, Silica gel (GF254) (Qingdao Marine Chemical Factory, Qingdao, China) were used for thin layer chromatographic (TLC) analysis, and all of the spots and bands were detected by UV irradiation (254, 365 nm). The intermediates and products were characterized by electrospray ionization mass spectrometry (TripleTOF5600þ; AB SCIEX Pte. Ltd., Boston, MA, USA), ^1H NMR and ^13C NMR (Bruker AM500 spectrometer; Bruker Corporation, Berne, Switzerland). The derivatives were dissolved in 100% dimethyl sulfoxide (DMSO; Beyotime Biotechnology, Haimen, China), stored at 4 °C prior to antiviral evaluation, and used within 6 months. For solubility, the stock solutions, at a concentration of 50 mg/mL, were sonicated for approximately 10 min to ensure that the derivatives were fully dissolved and mixed.

The subject of data set [4] is white spot syndrome virus (WSSV). Description: Stability assay in aquacultural water (residual anti-WSSV activity). Further details: species or system Litopenaeus vannamei. The following applies: 28 °C, nonlinear regression best-fit. The protocol:
Aquaculture water was obtained from culture ponds of the Zhejiang Mariculture Research Institute Qingjiang Station. C2/C7, with a final concentration of 10 mg/L, was added to aquacultural water samples in the presence of natural light for up to 4 days, at 28 °C, and finally preincubated with WSSV (final viral titer of 1.6 × 10^5 copies/µL) to infect shrimp larvae, followed by quantification of the copy number of the viral genome at 72 hpi, and the survival rate of the shrimp was evaluated.

For data set [5] the test system is unchanged. Description: Pre-exposure (pre-treatment) of larvae to compound before WSSV infection. The conditions noted are these: for change in copy number of the viral genome, pre-exposure vs virus alone: larvae exposed up to 8 h prior to WSSV infection, 10 mg/L; for time to which shrimp death was delayed: pre-exposure 10 mg/L, untreated 100% mortality by 72 h. It counts as in vivo, Litopenaeus vannamei. As for the experimental part:
For pre-treatment, C2/C7 (final concentration of 10 mg/L) was applied to shrimp larvae for 1, 4, and 8 h, followed by addition of WSSV (while the coumarin compounds were simultaneously removed) at a final viral titer of 1.6 × 10^5 copies/µL. The surviving shrimps were euthanized with MS-222 and frozen at −80 °C until being processed. The copy number of viral genome in samples was quantified by RT-qPCR.

Data set [6] shares this test system. Description: Continuous immersion with compound exchange after WSSV infection. The following applies: for survival rate: 10 mg/L. It counts as in vivo, Litopenaeus vannamei. The protocol: For continuous immersion with cultural medium exchange, the culture water in each well was replaced by C2/C7 or DMSO solution after WSSV infection (final viral titer of 1.6 × 10^5 copies/µL) for 24 h. Every 24 h, the shrimp were transformed into a new challenge well with fresh water and a fresh dose of C2/C7 or DMSO (0.2‰) for an additional 5 days. The survival shrimps were euthanized with MS-222 and frozen at −80 °C until processing. The survival of shrimp larvae and the copy number of viral genome in samples were described as above.

For data set [7] the test system is unchanged. Description: Horizontal transmission of WSSV to naive recipient larvae. Type of data set: in vivo, Litopenaeus vannamei. The following applies: 10 mg/L, each time point. The protocol:
Shrimp larvae were infected with 1.6 × 10^5 copies/µL WSSV or aquacultural water only. At 24 hpi, a total of the 12 donor shrimps were placed into each challenge beaker (100 mL of water and a continuous air supply), and C2 (10 mg/L final concentration) or DMSO (0.2‰ final concentration) was added to each challenge beaker. Every 24 h, five donor and fifteen recipient shrimp were netted into a new challenge beaker with fresh water and a fresh dose of C2/C7 (10 mg/L) or DMSO (0.2‰). After 72 h of cohabitation, the surviving recipient shrimps were euthanized with MS-222 and frozen at −80 °C. In order to distinguish the donor and recipient samples in this test, we chose the larger shrimp as the recipients (total length of 1.1 ± 0.2 cm, body weight of 6.9 ± 0.5 mg, mean values ± SD) and placed a sieve in the challenge beaker to separate the donor and recipient shrimps.

The mark [8] stands for this setting: WSSV-infected larvae, copy number of viral genome, 72 h, 95% CI in brackets.
The mark [9] stands for this setting: 60 h after exposure, larvae pre-infected 24 h, no exchange, untreated 0%.
The mark [10] stands for this setting: at 120 h, compound exchanged one to four times.

Values joined by “and” are separate entries in the source; they are usually repeats but may differ in a detail not shown here. Equal entries are not always repeated.

Regarding “2-amino-4-(4-chlorophenyl)-5-oxo-4H,5H-pyrano[3,2-c]chromene-3-carbonitrile [C7]”, the “signs of toxicity at the saturation concentration” value in data set [1] is given as “No signs of toxicity were observed”. For the same molecule, in data set [2], the “copy number of the viral genome in sick or dead shrimp homogenates” value was “down-regulated” and the “inhibitory efficiency on WSSV replication” value is on record as “exceeded 90%”. Further, in data set [2] (setting [8]), the “EC50 (mg/L; 95% CI), median effective concentration” value was < 10 mg/L and 05.727 (5.069~6.577) mg/L. Besides, the “MAR (%), maximum antiviral response” value in data set [2] (WSSV-infected larvae, viral genome copy number normalized to no treatment, low value = strong inhibition, mean ± SD) is 03.154 ± 1.157%. In data set [3], the “lowest precipitation concentration” value is given as “NONE (16) mg/L”, the “lowest precipitation concentration (bracketed value in LC50 48 h column)” value was “NONE (16) mg/L”, the “lowest precipitation concentration (bracketed value in LC50 72 h column)” value is “NONE (16) mg/L” and the “solubility in aquacultural water” value is on record as “insoluble”. Besides, the “calculated inhibitory half-life in water samples” value in data set [4] (10 mg/L) was 57.6 h. In data set [5], the “change in copy number of the viral genome, pre-exposure vs virus alone” value is given as “slight changes” and the “time to which shrimp death was delayed” value was 96 hpi. For the same molecule, the survival rate in data set [6] (setting [9]) worked out at 50%. Besides, the “mortality with continuous immersion of compound exchange” value in data set [6] (at 120 h) worked out at 40%. Besides, the survival rate result in data set [6] (setting [10]) is listed as “more than 60%”. Further, the “WSSV replication in naïve recipient larvae” value in data set [7] was “significantly downregulated”.
Take `Cc1ccc(C2C(C#N)=C(N)Oc3c2c(=O)oc2ccccc32)cc1` (centres unmarked) [C2, 2-amino-5-oxo-4-(p-tolyl)-4H,5H-pyrano[3,2-c]chromene-3-carbonitrile]: in data set [1], the “signs of toxicity at the saturation concentration” value is “No signs of toxicity were observed”. In addition, in data set [2], the “copy number of the viral genome in sick or dead shrimp homogenates” value is given as “down-regulated” and the “inhibitory efficiency on WSSV replication” value was “exceeded 90%”. Moreover, the “EC50 (mg/L; 95% CI), median effective concentration” value in data set [2] (setting [8]) is 05.993 (5.327~6.851) mg/L. For the same molecule, the EC50 in data set [2] (Whispovirus xiabaidian, 72 h, read-out: EC50 (mg/L; 95% CI), median effective concentration, WSSV-infected larvae, copy number of viral genome, 72 h, 95% CI in brackets) was less than 10 mg/L. Moreover, in data set [3], the “lowest precipitation concentration” value is reported as “NONE (16) mg/L”, the “lowest precipitation concentration (bracketed value in LC50 48 h column)” value is reported as “NONE (16) mg/L”, the “lowest precipitation concentration (bracketed value in LC50 72 h column)” value was “NONE (16) mg/L” and the “solubility in aquacultural water” value is reported as “insoluble”. The half-life at 10 mg/L in data set [4] (buffer, read-out: calculated inhibitory half-life in water samples (converted)) was 55.2 h. In addition, in data set [5], the “change in copy number of the viral genome, pre-exposure vs virus alone” value was “slight changes” and the “time to which shrimp death was delayed” value came out at 96 hpi. Further, the survival rate in data set [6] (setting [9]) was 50%. In data set [6] (at 120 h), the “mortality with continuous immersion of compound exchange” value is given as 40%. In addition, in data set [6] (setting [10]), the survival rate result is recorded as “more than 60%”. Also, the “WSSV replication in naïve recipient larvae” value in data set [7] is “significantly downregulated”.

Usually half-life stands for the time needed for the level to fall by half in the phase considered.
